Data as given in US5698544A, “Cephem compound, process for producing the compound, and antimicrobial composition containing the same” (Otsuka Kagaku Kabushiki Kaisha, priority 1994, dated 1997).
Values after ≈ are worked out from the molar mass of the structure shown.

Experiments:
E. coli NIHJ JC-2 = assay: Agar plate dilution assay (MIC), E. coli NIHJ JC-2; type: cell-based; conditions: Escherichia coli, NIHJJC2, inoculum size 10^6 cells/ml
S. aureus FDA 209-P = assay: Agar plate dilution assay (MIC), S. aureus FDA 209-P; type: cell-based; conditions: Staphylococcus aureus, FDA209, inoculum size 10^6 cells/ml
S. marcescens IFO-12648 = assay: Agar plate dilution assay (MIC), S. marcescens IFO-12648; type: cell-based; conditions: Serratia marcescens, IFO12648, inoculum size 10^6 cells/ml
MRSA 92-1044 = assay: Agar plate dilution assay (MIC), MRSA 92-1044; type: cell-based, methicillin-resistant Staphylococcus aureus; conditions: Staphylococcus aureus, inoculum size 10^6 cells/ml
E. faecalis ATCC-21212 = assay: Agar plate dilution assay (MIC), E. faecalis ATCC-21212; type: cell-based; conditions: Enterococcus faecalis, ATCC21212, inoculum size 10^6 cells/ml

MIC (E. coli NIHJ JC-2) [µg/mL]	MIC (S. aureus FDA 209-P) [µg/mL]	MIC (S. marcescens IFO-12648) [µg/mL]	MIC (MRSA 92-1044) [µg/mL]	MIC (E. faecalis ATCC-21212) [µg/mL]	Structure (SMILES)
0.025	0.1	0.1	1.56	0.2	C[N+]1(CC[n+]2ccc(SC=CC3=C(C(=O)O)N4C(=O)C(NC(=O)C(=NO)c5csc(N)n5)C4SC3)cc2)CCOCC1 (centres unmarked) [(f)]
0.025	0.2	0.2	1.56	0.2	CC(=O)C[N+](C)(C)CC[n+]1ccc(SC=CC2=C(C(=O)O)N3C(=O)C(NC(=O)C(=NO)c4csc(N)n4)C3SC2)cc1 (centres unmarked) [(d)]
0.39	0.39	3.13	6.25	0.39	C[N+](C)(C)CC[n+]1ccc(SC=CC2=C(C(=O)O)N3C(=O)C(NC(=O)C(=NOC4CCCC4)c4csc(N)n4)C3SC2)cc1 (centres unmarked) [(a)]
0.05	0.1	0.1	1.56	0.1	C[N+](C)(C)CC[n+]1ccc(SC=CC2=C(C(=O)O)N3C(=O)C(NC(=O)C(=NO)c4csc(N)n4)C3SC2)cc1 (centres unmarked) [(b)]
0.025	0.1	0.1	1.56	0.1	C[N+](C)(CC[n+]1ccc(SC=CC2=C(C(=O)O)N3C(=O)C(NC(=O)C(=NO)c4csc(N)n4)C3SC2)cc1)CC(N)=O (centres unmarked) [(c)]
0.05	0.1	0.1	1.56	0.1	C[N+](C)(CCO)CC[n+]1ccc(SC=CC2=C(C(=O)O)N3C(=O)C(NC(=O)C(=NO)c4csc(N)n4)C3SC2)cc1 (centres unmarked) [(e)]
0.05 (≈ 0.101 µM)	0.2 (≈ 0.403 µM)	0.2 (≈ 0.403 µM)	> 100	100 (≈ 201 µM)	CO[C@@]1(NC(=O)CSC(F)F)C(=O)N2C(C(=O)O)=C(CSc3nnnn3CCO)CO[C@@H]21 [FMOX, flomoxef, reference compound]
